Laboratory results published in ChEMBL document CHEMBL5252552, “Defined concatenated α6α1β3γ2 GABAA receptor constructs reveal dual action of pyrazoloquinolinone allosteric modulators” (Bioorg Med Chem, 2019).

Columns and labels:
[1] = target: T1, Gamma-aminobutyric acid receptor subunit alpha-1/beta-3/gamma-2 (Rattus norvegicus) (UniProt P18508+P62813+P63079); assay: (§1) Positive allosteric modulation of rat recombinant GABAA alpha1beta3alpha1-gamma2beta3 receptor expressed in Xenopus laevis oocytes assessed as maximal efficacy at -80 mV holding potential at 3 uM in presence of GABA EC1 to 1.5 by two-electrode voltage-clamp assay; format: cell-based; details: Oocyte, filed as positive allosteric modulator
[2] = target: T2, Gamma-aminobutyric acid receptor subunit alpha-1/alpha-6/beta-3/gamma-2 (Rattus norvegicus) (UniProt P18508+P30191+P62813+P63079); assay: (§2) Positive allosteric modulation of rat recombinant GABAA alpha6beta3alpha1-gamma2beta3 receptor expressed in Xenopus laevis oocytes assessed as maximal efficacy at -80 mV holding potential at 30 nM in presence of GABA EC1 to 1.5 by two-electrode voltage-clamp assay; format: cell-based; details: Oocyte
[3] = target: T1, Gamma-aminobutyric acid receptor subunit alpha-1/beta-3/gamma-2 (Rattus norvegicus); assay: Positive allosteric modulation of rat recombinant GABAA alpha1beta3gamma2 receptor expressed in Xenopus laevis oocytes assessed as maximal efficacy at -80 mV holding potential at 3 uM in presence of GABA EC1 to 1.5 by two-electrode voltage-clamp assay; format: cell-based; details: Oocyte, filed as positive allosteric modulator
[4] = target: T1, Gamma-aminobutyric acid receptor subunit alpha-1/beta-3/gamma-2 (Rattus norvegicus); assay: Positive allosteric modulation of rat recombinant GABAA alpha1beta3gamma2 receptor expressed in Xenopus laevis oocytes assessed as maximal efficacy at -80 mV holding potential at 300 nM in presence of GABA EC1 to 1.5 by two-electrode voltage-clamp assay; format: cell-based; details: Oocyte
[5] = target: T2, Gamma-aminobutyric acid receptor subunit alpha-1/alpha-6/beta-3/gamma-2 (Rattus norvegicus); assay: Positive allosteric modulation of rat recombinant GABAA gamma2beta3alpha1-beta3alpha6 receptor expressed in Xenopus laevis oocytes assessed as maximal efficacy at -80 mV holding potential at 1 uM in presence of GABA EC1 to 1.5 by two-electrode voltage-clamp assay; format: cell-based; details: Oocyte, filed as positive allosteric modulator
[6] = target: T1, Gamma-aminobutyric acid receptor subunit alpha-1/beta-3/gamma-2 (Rattus norvegicus); assay: Positive allosteric modulation of rat recombinant GABAA alpha1beta3gamma2 receptor expressed in Xenopus laevis oocytes assessed as maximal efficacy at -80 mV holding potential at 10 uM in presence of GABA EC1 to 1.5 by two-electrode voltage-clamp assay; format: cell-based; details: Oocyte, filed as positive allosteric modulator
[7] = target: T1, Gamma-aminobutyric acid receptor subunit alpha-1/beta-3/gamma-2 (Rattus norvegicus); assay: Positive allosteric modulation of rat recombinant GABAA alpha1beta3alpha1-gamma2beta3 receptor expressed in Xenopus laevis oocytes assessed as maximal efficacy at -80 mV holding potential at 100 nM in presence of GABA EC1 to 1.5 by two-electrode voltage-clamp assay; format: cell-based; details: Oocyte
[8] = target: T2, Gamma-aminobutyric acid receptor subunit alpha-1/alpha-6/beta-3/gamma-2 (Rattus norvegicus); assay: Positive allosteric modulation of rat recombinant GABAA gamma2beta3alpha1-beta3alpha6 receptor expressed in Xenopus laevis oocytes assessed as maximal efficacy at -80 mV holding potential at 300 nM in presence of GABA EC1 to 1.5 by two-electrode voltage-clamp assay; format: cell-based; details: Oocyte, filed as positive allosteric modulator
[9] = target: T3, Gamma-aminobutyric acid receptor subunit alpha-6/beta-3/gamma-2 (Rattus norvegicus) (UniProt P18508+P30191+P63079); assay: Positive allosteric modulation of rat recombinant GABAA alpha6beta3gamma2 receptor expressed in Xenopus laevis oocytes assessed as maximal efficacy at -80 mV holding potential at 10 uM in presence of GABA EC1 to 1.5 by two-electrode voltage-clamp assay; format: cell-based; details: Oocyte, filed as positive allosteric modulator
[10] = target: Gamma-aminobutyric acid receptor subunit alpha-1/beta-3/gamma-2 (Rattus norvegicus, UniProt P18508+P62813+P63079); assay: as §1, with “increase in GABA-induced current amplitude” for “maximal efficacy”, “under less potent phase” for “at 3 uM”; format: cell-based, Oocyte
Gamma-aminobutyric acid receptor subunit alpha-1/beta-3/gamma-2, sequence (P18508 whole entry): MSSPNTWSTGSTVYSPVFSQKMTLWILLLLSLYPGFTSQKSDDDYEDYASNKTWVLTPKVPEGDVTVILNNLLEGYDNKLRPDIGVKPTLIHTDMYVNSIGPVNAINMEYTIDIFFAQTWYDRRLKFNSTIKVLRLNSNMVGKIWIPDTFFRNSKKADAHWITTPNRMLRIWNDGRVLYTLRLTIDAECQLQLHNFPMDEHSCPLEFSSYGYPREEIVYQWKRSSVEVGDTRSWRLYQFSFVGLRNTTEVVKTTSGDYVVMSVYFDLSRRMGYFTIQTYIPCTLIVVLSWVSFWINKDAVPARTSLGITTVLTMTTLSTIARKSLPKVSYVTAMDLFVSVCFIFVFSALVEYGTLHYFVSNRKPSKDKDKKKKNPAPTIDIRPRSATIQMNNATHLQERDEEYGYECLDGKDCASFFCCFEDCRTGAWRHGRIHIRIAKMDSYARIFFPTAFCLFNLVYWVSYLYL
Gamma-aminobutyric acid receptor subunit alpha-1/beta-3/gamma-2, sequence (P62813 whole entry): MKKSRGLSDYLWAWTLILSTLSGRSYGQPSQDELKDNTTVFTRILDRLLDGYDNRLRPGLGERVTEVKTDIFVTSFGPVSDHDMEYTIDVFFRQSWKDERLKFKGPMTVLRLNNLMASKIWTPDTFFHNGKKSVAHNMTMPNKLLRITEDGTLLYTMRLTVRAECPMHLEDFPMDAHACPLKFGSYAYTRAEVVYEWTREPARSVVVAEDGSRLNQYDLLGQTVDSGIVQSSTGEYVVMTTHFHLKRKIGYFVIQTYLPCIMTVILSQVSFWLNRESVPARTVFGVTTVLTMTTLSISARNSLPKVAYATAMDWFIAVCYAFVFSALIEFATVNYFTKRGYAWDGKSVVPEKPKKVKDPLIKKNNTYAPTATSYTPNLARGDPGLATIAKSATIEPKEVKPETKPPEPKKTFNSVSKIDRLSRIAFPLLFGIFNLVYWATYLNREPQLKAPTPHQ
Gamma-aminobutyric acid receptor subunit alpha-1/beta-3/gamma-2, sequence (P63079 whole entry): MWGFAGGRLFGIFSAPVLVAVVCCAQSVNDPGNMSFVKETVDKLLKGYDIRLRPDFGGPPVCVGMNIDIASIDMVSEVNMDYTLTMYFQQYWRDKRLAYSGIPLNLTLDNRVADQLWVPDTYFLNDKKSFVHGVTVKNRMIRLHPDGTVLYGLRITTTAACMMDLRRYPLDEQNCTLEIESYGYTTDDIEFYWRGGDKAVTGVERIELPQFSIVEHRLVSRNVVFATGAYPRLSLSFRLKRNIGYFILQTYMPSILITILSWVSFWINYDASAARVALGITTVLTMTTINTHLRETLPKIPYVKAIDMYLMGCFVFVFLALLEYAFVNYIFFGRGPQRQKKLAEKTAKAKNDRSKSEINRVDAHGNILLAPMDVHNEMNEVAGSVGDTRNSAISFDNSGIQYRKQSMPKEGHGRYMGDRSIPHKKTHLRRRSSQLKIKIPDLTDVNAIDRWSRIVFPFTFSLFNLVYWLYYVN

[11] = target: T4, Gamma-aminobutyric acid receptor subunit alpha-1/alpha-6/beta-3/gamma-2 (Rattus norvegicus, UniProt P18508+P30191+P62813+P63079); assay: as §2, with “increase in GABA-induced current amplitude” for “maximal efficacy”, “under less potent phase” for “at 30 nM”; format: cell-based, Oocyte
T4 sequence (P18508 whole entry): as the sequence (P18508 whole entry) above
T4 sequence (P30191 whole entry): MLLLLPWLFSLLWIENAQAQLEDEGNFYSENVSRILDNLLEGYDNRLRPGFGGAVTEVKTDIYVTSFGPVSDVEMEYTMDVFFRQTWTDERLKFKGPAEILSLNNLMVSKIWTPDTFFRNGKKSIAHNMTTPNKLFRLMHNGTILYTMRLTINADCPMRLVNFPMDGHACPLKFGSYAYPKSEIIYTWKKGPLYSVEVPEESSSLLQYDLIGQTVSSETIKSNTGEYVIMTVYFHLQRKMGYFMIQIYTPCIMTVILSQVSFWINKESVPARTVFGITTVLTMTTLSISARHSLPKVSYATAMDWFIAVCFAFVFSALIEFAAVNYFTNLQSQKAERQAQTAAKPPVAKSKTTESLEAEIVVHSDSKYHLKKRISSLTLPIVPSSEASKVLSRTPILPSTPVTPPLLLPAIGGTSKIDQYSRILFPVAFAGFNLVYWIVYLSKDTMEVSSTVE
T4 sequence (P62813 whole entry): as the sequence (P62813 whole entry) above
T4 sequence (P63079 whole entry): as the sequence (P63079 whole entry) above

[12] = target: T3, Gamma-aminobutyric acid receptor subunit alpha-6/beta-3/gamma-2 (Rattus norvegicus); assay: Positive allosteric modulation of rat recombinant GABAA alpha6beta3gamma2 receptor expressed in Xenopus laevis oocytes assessed as maximal current at -80 mV holding potential under less potent phase in presence of GABA EC1 to 1.5 by two-electrode voltage-clamp assay relative to control; format: cell-based; details: Oocyte, filed as positive allosteric modulator
[13] = target: T4, Gamma-aminobutyric acid receptor subunit alpha-1/alpha-6/beta-3/gamma-2; assay: (§3) Positive allosteric modulation of rat recombinant GABAA gamma2beta3alpha1-beta3alpha6 receptor expressed in Xenopus laevis oocytes assessed as increase in GABA-induced current amplitude at -80 mV holding potential under more potent phase in presence of GABA EC1 to 1.5 by two-electrode voltage-clamp assay; format: cell-based, Oocyte
[14] = target: T4, Gamma-aminobutyric acid receptor subunit alpha-1/alpha-6/beta-3/gamma-2; assay: as §3, with “less” for “more”; format: cell-based, Oocyte
[15] = target: T3, Gamma-aminobutyric acid receptor subunit alpha-6/beta-3/gamma-2 (Rattus norvegicus); assay: Positive allosteric modulation of rat recombinant GABAA alpha6beta3alpha6-gamma2beta3 receptor expressed in Xenopus laevis oocytes assessed as maximal efficacy at -80 mV holding potential at 1 uM in presence of GABA EC1 to 1.5 by two-electrode voltage-clamp assay; format: cell-based; details: Oocyte, filed as positive allosteric modulator
[16] = target: T3, Gamma-aminobutyric acid receptor subunit alpha-6/beta-3/gamma-2 (Rattus norvegicus); assay: Positive allosteric modulation of rat recombinant GABAA alpha6beta3alpha6-gamma2beta3 receptor expressed in Xenopus laevis oocytes assessed as maximal efficacy at -80 mV holding potential at 300 nM in presence of GABA EC1 to 1.5 by two-electrode voltage-clamp assay; format: cell-based; details: Oocyte, filed as positive allosteric modulator
[17] = target: T2, Gamma-aminobutyric acid receptor subunit alpha-1/alpha-6/beta-3/gamma-2 (Rattus norvegicus); assay: Positive allosteric modulation of rat recombinant GABAA gamma2beta3alpha1-beta3alpha6 receptor expressed in Xenopus laevis oocytes assessed as maximal efficacy at -80 mV holding potential at 30 nM in presence of GABA EC1 to 1.5 by two-electrode voltage-clamp assay; format: cell-based; details: Oocyte
[18] = target: Gamma-aminobutyric acid receptor subunit alpha-6/beta-3/gamma-2 (Rattus norvegicus, UniProt P18508+P30191+P63079); assay: Positive allosteric modulation of rat recombinant GABAA alpha6beta3gamma2 receptor expressed in Xenopus laevis oocytes assessed as increase in GABA-induced current amplitude at -80 mV holding potential under more potent phase in presence of GABA EC1 to 1.5 by two-electrode voltage-clamp assay; format: cell-based, Oocyte
Gamma-aminobutyric acid receptor subunit alpha-6/beta-3/gamma-2, sequence (P18508 whole entry): as the sequence (P18508 whole entry) above
Gamma-aminobutyric acid receptor subunit alpha-6/beta-3/gamma-2, sequence (P30191 whole entry): as the sequence (P30191 whole entry) above
Gamma-aminobutyric acid receptor subunit alpha-6/beta-3/gamma-2, sequence (P63079 whole entry): as the sequence (P63079 whole entry) above

[19] = target: T2, Gamma-aminobutyric acid receptor subunit alpha-1/alpha-6/beta-3/gamma-2 (Rattus norvegicus); assay: Positive allosteric modulation of rat recombinant GABAA alpha6beta3alpha1-gamma2beta3 receptor expressed in Xenopus laevis oocytes assessed as maximal efficacy at -80 mV holding potential at 300 nM in presence of GABA EC1 to 1.5 by two-electrode voltage-clamp assay; format: cell-based; details: Oocyte, filed as positive allosteric modulator
[20] = target: T1, Gamma-aminobutyric acid receptor subunit alpha-1/beta-3/gamma-2 (Rattus norvegicus); assay: Positive allosteric modulation of rat recombinant GABAA alpha1beta3gamma2 receptor expressed in Xenopus laevis oocytes assessed as maximal efficacy at -80 mV holding potential at 30 uM in presence of GABA EC1 to 1.5 by two-electrode voltage-clamp assay; format: cell-based; details: Oocyte, filed as positive allosteric modulator
[21] = target: T2, Gamma-aminobutyric acid receptor subunit alpha-1/alpha-6/beta-3/gamma-2 (Rattus norvegicus); assay: Positive allosteric modulation of rat recombinant GABAA gamma2beta3alpha1-beta3alpha6 receptor expressed in Xenopus laevis oocytes assessed as maximal efficacy at -80 mV holding potential at 10 uM in presence of GABA EC1 to 1.5 by two-electrode voltage-clamp assay; format: cell-based; details: Oocyte, filed as positive allosteric modulator
[22] = target: T1, Gamma-aminobutyric acid receptor subunit alpha-1/beta-3/gamma-2 (Rattus norvegicus); assay: Positive allosteric modulation of rat recombinant GABAA alpha1beta3alpha1-gamma2beta3 receptor expressed in Xenopus laevis oocytes assessed as maximal efficacy at -80 mV holding potential at 300 nM in presence of GABA EC1 to 1.5 by two-electrode voltage-clamp assay; format: cell-based; details: Oocyte
[23] = target: T1, Gamma-aminobutyric acid receptor subunit alpha-1/beta-3/gamma-2 (Rattus norvegicus); assay: Positive allosteric modulation of rat recombinant GABAA alpha1beta3alpha1-gamma2beta3 receptor expressed in Xenopus laevis oocytes assessed as maximal efficacy at -80 mV holding potential at 1 uM in presence of GABA EC1 to 1.5 by two-electrode voltage-clamp assay; format: cell-based; details: Oocyte

Efficacy [1]: 95% | Efficacy [2]: 8% | Efficacy [3]: 54% | Efficacy [4]: 11% | Efficacy [5]: 80% | Efficacy [6]: 84% | Efficacy [7]: 8% | Efficacy [8]: 48% | Efficacy [9]: 585% | EC50 [10]: 10 µM | EC50 [11]: 7 µM | %max [12]: 580% | EC50 [13]: 0.004 µM | EC50 [14]: 36 µM | Efficacy [15]: 196% | Efficacy [16]: 124% | Efficacy [17]: 31% | EC50 [18]: 0.001 µM | Efficacy [19]: 60% | Efficacy [20]: 109% | Efficacy [21]: 186% | Efficacy [22]: 17% | Efficacy [23]: 34%
SMILES: COc1ccc(-n2nc3c4ccc(Br)cc4[nH]cc-3c2=O)cc1
